Where two headings read alike, the source gives them in different places.
Target: Bovine serum albumin (Bos taurus, UniProt P02769)
Test: Bovine Serum Albumin (BSA) assay, in-vitro protein denaturation
Type: biochemical
Settings: for inhibition at 20 µg/mL / inhibition at 40 µg/mL / inhibition at 60 µg/mL / inhibition at 80 µg/mL / inhibition at 100 µg/mL: 72° C. for 10 minutes, turbidity at 660 nm
Description: Bovine Serum Albumin Assay (BSA) In vitro-inflammatory activities of the tested samples were determined using a modified method of the BSA assay reported by Williams et al. BSA solution (0.4%, w/v) was prepared in Tris Buffered Saline. The pH was adjusted to 6.4 with glacial acetic acid. Different dilutions of 20, 40, 60, 80, and 100 μg/mL of 1-cyclopropyl-7-(4-((5-(3,5-dichlorobenzylideneamino)-2-thioxo-1,3,4-thiadiazol-3(2H)-yl)methyl)piperazin-1-yl)-6-fluoro-4-oxo-1,4-dihydroquinoline-3-carboxylic acid (IV) and the stock solutions were added to test tubes containing 1 mL of 0.4%, w/v BSA buffer solution. Both negative (solvent) and positive (aspirin) controls were assayed in a similar manner. The solutions were then heated in a water bath at 72° C. for 10 minutes, and cooled for 20 minutes under laboratory conditions. The turbidity of the solutions (level of protein precipitation) was measured at 660 nm in Spectrophotometer (V-770 UV-Visible/NIR Spectrophotometer). The percentage inhibition of precipitation (protein denaturation) was determined relative to the negative control using the following equation: [formula] [formula] Anti-Inflammatory Activity

Sequence of Bovine serum albumin (P02769 25-607): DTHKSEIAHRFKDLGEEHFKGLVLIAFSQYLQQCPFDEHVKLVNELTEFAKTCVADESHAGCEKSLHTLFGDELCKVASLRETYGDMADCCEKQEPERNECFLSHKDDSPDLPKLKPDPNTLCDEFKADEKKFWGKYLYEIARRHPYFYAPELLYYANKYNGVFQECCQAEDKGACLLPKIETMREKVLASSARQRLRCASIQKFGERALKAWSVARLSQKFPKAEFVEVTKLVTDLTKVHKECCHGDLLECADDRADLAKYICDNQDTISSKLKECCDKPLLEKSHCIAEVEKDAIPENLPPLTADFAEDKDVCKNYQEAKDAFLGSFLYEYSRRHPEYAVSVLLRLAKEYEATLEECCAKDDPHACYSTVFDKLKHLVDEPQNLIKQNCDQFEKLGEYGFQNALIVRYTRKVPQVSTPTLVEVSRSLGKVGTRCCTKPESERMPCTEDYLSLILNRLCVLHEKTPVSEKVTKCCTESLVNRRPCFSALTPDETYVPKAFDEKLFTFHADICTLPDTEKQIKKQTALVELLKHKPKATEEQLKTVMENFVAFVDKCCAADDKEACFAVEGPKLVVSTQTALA

inhibition at 20 µg/mL (concentration 20 μg/ml, read-out: % Inhibition of protein denaturation (Bovine serum albumin)) [%]	inhibition at 40 µg/mL (concentration 40 μg/ml, read-out: % Inhibition of protein denaturation (Bovine serum albumin)) [%]	inhibition at 60 µg/mL (concentration 60 μg/ml, read-out: % Inhibition of protein denaturation (Bovine serum albumin)) [%]	inhibition at 80 µg/mL (concentration 80 μg/ml, read-out: % Inhibition of protein denaturation (Bovine serum albumin)) [%]	inhibition at 100 µg/mL (concentration 100 μg/ml, read-out: % Inhibition of protein denaturation (Bovine serum albumin)) [%]	in vitro anti-inflammatory activity (result in words) (BSA protein denaturation)	% Inhibition of protein denaturation (Bovine serum albumin) (bovine, 10 min, 100 μg/mL, pH 6.4) [%]	inhibition at 20 µg/mL (read-out: % Inhibition of protein denaturation (Bovine serum albumin), concentration 20 μg/ml) [%]	inhibition at 40 µg/mL (read-out: % Inhibition of protein denaturation (Bovine serum albumin), concentration 40 μg/ml) [%]	inhibition at 60 µg/mL (read-out: % Inhibition of protein denaturation (Bovine serum albumin), concentration 60 μg/ml) [%]	inhibition at 80 µg/mL (read-out: % Inhibition of protein denaturation (Bovine serum albumin), concentration 80 μg/ml) [%]	inhibition at 100 µg/mL (read-out: % Inhibition of protein denaturation (Bovine serum albumin), concentration 100 μg/ml) [%]	SMILES
71	77.5	82.6	85.5	90.8								CC(=O)Oc1ccccc1C(=O)O [aspirin, reference compound]
					considerable anti-inflammatory effect	83.77	58	68.7	73.2	80	87.6	O=C(O)c1cn(C2CC2)c2cc(N3CCN(Cn4nc(/N=C/c5cc(Cl)cc(Cl)c5)sc4=S)CC3)c(F)cc2c1=O [IV, 1-cyclopropyl-7-(4-((5-(3,5-dichlorobenzylideneamino)-2-thioxo-1,3,4-thiadiazol-3(2H)-yl)methyl)piperazin-1-yl)-6-fluoro-4-oxo-1,4-dihydroquinoline-3-carboxylic acid]

Source: patent publication US11891385B1, “1-cyclopropyl-7-(4-((5-(3,5-dichlorobenzylideneamino)-2-thioxo-1,3,4-thiadiazol-3(2H)-yl)methyl)piperazin-1-yl)-6-fluoro-4-oxo-1,4-dihydroquinoline-3-carboxylic aci d as an anti-inflammatory compound” (KING FAISAL UNIVERSITY, priority 2023, dated 2024)
